# Target: T1, human IL-17AA (Homo sapiens, UniProt Q16552)
# T1 construct: host or cells: HEK (human embryonic kidney) cells
# T1 sequence (Q16552 24-155) 1: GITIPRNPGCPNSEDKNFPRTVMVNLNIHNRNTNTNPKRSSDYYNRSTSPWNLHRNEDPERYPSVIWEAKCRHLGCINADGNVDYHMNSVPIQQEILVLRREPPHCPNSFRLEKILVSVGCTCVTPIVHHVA
# T1 sequence (Q16552 24-155) 2: T1 sequence (Q16552 24-155) 1
# Assay: IL-8 release assay in human epithelial keratinocytes adult (HEKa)
# Assay type: cell-based
# Details: HEKa cells; 3 ng/mL HEK-human IL-17AA + 10 ng/mL human TNFalpha; 68-72 hours; IL-8 by HTRF; read-out: Rel EC50 IL-8 release assay
# Outline: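 Adult human epidermal keratinocytes treated with compound, then stimulated 68-72 h at 37 °C with HEK-derived human IL-17AA 3 ng/mL plus TNF-alpha 10 ng/mL (final); TNF-alpha alone defined 100% inhibition. Secreted IL-8 measured by HTRF (665/620 nm) as percent of controls; relative IC50 and Emax from four-parameter fits.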
row,Compound,EC50
1,"Cc1n[nH]c(C)c1-c1ccc(NC(=O)C(c2ncc(-c3ccnn3C(C)C)[nH]2)C(C2CC2)C2CC2)cc1 (stereo not drawn) [Example 68, 3,3-dicyclopropyl-N-[4-(3,5-dimethyl-1H-pyrazol-4-yl)phenyl]-2-[5-(2-isopropylpyrazol-3-yl)-1H-imidazol-2-yl]propanamide]",170 nM
2,"COc1cc(-c2cnc(C(C(=O)Nc3ccc(-c4c(C)n[nH]c4C)cc3)C(C3CC3)C3CC3)[nH]2)ccn1 (stereo not drawn) [Example 69, 3,3-dicyclopropyl-N-[4-(3,5-dimethyl-1H-pyrazol-4-yl)phenyl]-2-[5-(2-methoxy-4-pyridyl)-1H-imidazol-2-yl]propanamide]",490 nM
3,"Cc1n[nH]c(C)c1-c1ccc(NC(=O)C(c2nc(F)c(-c3ccccc3)[nH]2)C(C2CC2)C2CC2)cc1 (stereo not drawn) [Example 72, 3,3-dicyclopropyl-N-[4-(3,5-dimethyl-1H-pyrazol-4-yl)phenyl]-2-(4-fluoro-5-phenyl-1H-imidazol-2-yl)propanamide]",260 nM

# Source: US20230227435A1, “SMALL MOLECULE MODULATORS OF IL-17” (LEO PHARMA A/S, priority 2020, published 2023)
